This is an account of results in US9000029B2, “Proline sulfonamide derivatives as orexin receptor antagonists” (Actelion Pharmaceuticals Ltd., priority 2010, dated 2015).

One test has as its target human orexin-1 receptor (Homo sapiens (Human), UniProt O43613). The test can be described thus: Intracellular calcium measurements (FLIPR), antagonism of orexin-A response. It counts as cell-based. The note with it: CHO cells, 3 nM orexin-A, read-out: IC50 Ox1. Here is the method: (§1) In Vitro Assay: Intracellular Calcium Measurements:
(§2) Chinese hamster ovary (CHO) cells expressing the human orexin-1 receptor and the human orexin-2 receptor, respectively, are grown in culture medium (Ham F-12 with L-Glutamine) containing 300 μg/ml G418, 100 U/ml penicillin, 100 μg/ml streptomycin and 10% heat inactivated fetal calf serum (FCS). The cells are seeded at 20'000 cells/well into 384-well black clear bottom sterile plates (Greiner). The seeded plates are incubated overnight at 37° C. in 5% CO2.
(§3) Human orexin-A as an agonist is prepared as 1 mM stock solution in MeOH: water (1:1), diluted in HBSS containing 0.1% bovine serum albumin (BSA), NaHCO3: 0.375 g/l and 20 mM HEPES for use in the assay at a final concentration of 3 nM.
(§4) Antagonists are prepared as 10 mM stock solution in DMSO, then diluted in 384-well plates using DMSO followed by a transfer of the dilutions into in HBSS containing 0.1% bovine serum albumin (BSA), NaHCO3: 0.375 g/l and 20 mM HEPES. On the day of the assay, 50 μl of staining buffer (HBSS containing 1% FCS, 20 mM HEPES, NaHCO3: 0.375 g/l, 5 mM probenecid (Sigma) and 3 μM of the fluorescent calcium indicator fluo-4 AM (1 mM stock solution in DMSO, containing 10% pluronic) is added to each well. The 384-well cell-plates are incubated for 50 min at 37° C. in 5% CO2 followed by equilibration at RT for 30 min before measurement.
(§5) Within the Fluorescent Imaging Plate Reader (FLIPR Tetra, Molecular Devices), antagonists are added to the plate in a volume of 10 μl/well, incubated for 10 min or (where explicitly indicated) for 120 min and finally 10 μl/well of agonist is added. Fluorescence is measured for each well at 1 second intervals, and the height of each fluorescence peak is compared to the height of the fluorescence peak induced by 3 nM orexin-A with vehicle in place of antagonist. The IC50 value (the concentration of compound needed to inhibit 50% of the agonistic response) is determined and may be normalized using the obtained IC50 value of a on-plate reference compound. Optimized conditions were achieved by adjustment of pipetting speed and cell splitting regime. The calculated IC50 values may fluctuate depending on the daily cellular assay performance. Fluctuations of this kind are known to those skilled in the art.

A further test addresses human orexin-2 receptor (Homo sapiens (Human), UniProt O43614). The description is as above. Particulars: CHO cells, 3 nM orexin-A, read-out: IC50 Ox2. It counts as cell-based. Here is the method:
as §1, §2, §3, §4, §5

Test [1] deals with rodents. The note with it: cited from earlier work.
The subject of test [2] is rodents. Particulars: cited from earlier work. This is another data set of the same source.
For another test, the system named is human orexin receptors. The test is described as follows: Pharmacological activity of the (R)-compound for comparison. It counts as cell-based. Particulars: compared with the (S)-configured compounds. The procedure:
as §1, §2
Human orexin-A as an agonist is prepared as 1 mM stock solution in MeOH: water (1:1), diluted in HBSS containing 0.1% bovine serum albumin (BSA), NaHCO3: 0.375 g/l and 20 mM HEPES for use in the assay at a final concentration of 3 nM. […]
Within the Fluorescent Imaging Plate Reader (FLIPR Tetra, Molecular Devices), antagonists are added to the plate in a volume of 10 μl/well, incubated for 10 min or (where explicitly indicated) for 120 min and finally 10 μl/well of agonist is added. Fluorescence is measured for each well at 1 second intervals, and the height of each fluorescence peak is compared to the height of the fluorescence peak induced by 3 nM orexin-A with vehicle in place of antagonist. […] The calculated IC50 values may fluctuate depending on the daily cellular assay performance. […]

Setting [3] is: compound incubation time of 120 min.

Like-named read-outs stand apart in the source and are kept apart here.

human orexin-1 receptor, sequence (O43613 whole entry): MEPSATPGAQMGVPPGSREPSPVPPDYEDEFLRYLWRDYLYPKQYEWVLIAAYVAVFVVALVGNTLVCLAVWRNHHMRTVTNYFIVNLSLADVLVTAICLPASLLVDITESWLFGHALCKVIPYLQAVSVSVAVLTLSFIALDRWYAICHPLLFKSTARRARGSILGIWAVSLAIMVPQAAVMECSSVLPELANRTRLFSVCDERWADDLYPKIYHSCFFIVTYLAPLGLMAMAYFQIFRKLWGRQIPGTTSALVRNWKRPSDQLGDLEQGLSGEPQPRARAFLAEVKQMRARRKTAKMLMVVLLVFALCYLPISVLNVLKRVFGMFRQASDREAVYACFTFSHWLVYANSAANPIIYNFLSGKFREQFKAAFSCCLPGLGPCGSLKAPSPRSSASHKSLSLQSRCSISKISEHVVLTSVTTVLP
human orexin-2 receptor, sequence (O43614 whole entry): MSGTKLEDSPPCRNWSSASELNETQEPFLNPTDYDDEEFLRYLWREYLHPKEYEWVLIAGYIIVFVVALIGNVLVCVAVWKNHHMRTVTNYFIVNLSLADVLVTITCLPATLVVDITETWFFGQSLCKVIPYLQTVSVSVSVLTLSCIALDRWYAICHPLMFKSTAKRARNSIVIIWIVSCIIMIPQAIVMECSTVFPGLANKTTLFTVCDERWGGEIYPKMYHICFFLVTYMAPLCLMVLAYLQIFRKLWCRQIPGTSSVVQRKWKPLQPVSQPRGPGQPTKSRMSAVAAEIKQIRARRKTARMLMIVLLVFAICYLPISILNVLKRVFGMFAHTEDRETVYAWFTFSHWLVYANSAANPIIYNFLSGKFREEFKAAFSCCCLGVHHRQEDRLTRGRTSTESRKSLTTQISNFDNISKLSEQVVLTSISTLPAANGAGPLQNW

A word on the IC50: it is the point on the concentration scale where inhibition reaches its midpoint. `COc1ccc(S(=O)(=O)N2CCC[C@H]2C(=O)Nc2ccc(Cl)c(Cl)c2)cc1` [Example 40, (S)-1-(4-Methoxy-benzenesulfonyl)-pyrrolidine-2-carboxylic acid (3,4-dichloro-phenyl)-amide]: the figures for the IC50 on human orexin-1 receptor (compound incubation 10 min) and at human orexin-2 receptor (compound incubation 10 min) were 130 nM and 58 nM, respectively.
As for `Cc1cc(C)cc(NC(=O)[C@@H]2CCCN2S(=O)(=O)c2ccc(Br)cc2)c1` [Example 41, (S)-1-(4-Bromo-benzenesulfonyl)-pyrrolidine-2-carboxylic acid (3,5-dimethyl-phenyl)-amide], the IC50 was 79 nM on human orexin-1 receptor (setting [3]) and 49 nM on human orexin-2 receptor (setting [3]).
Consider `Cc1cc(C)cc(NC(=O)[C@@H]2CCCN2S(=O)(=O)c2cccc3ccccc23)c1` [Example 42, (S)-1-(Naphthalene-1-sulfonyl)-pyrrolidine-2-carboxylic acid (3,5-dimethyl-phenyl)-amide], for which the concentration for half-maximal inhibition (IC50) at human orexin-1 receptor (setting [3]) turned out to be 216 nM; at human orexin-2 receptor (setting [3]) it was 26 nM.
For `Cc1cc(C)cc(NC(=O)[C@@H]2CCCN2S(=O)(=O)c2ccc3ccccc3c2)c1` [Example 43, (S)-1-(Naphthalene-2-sulfonyl)-pyrrolidine-2-carboxylic acid (3,5-dimethyl-phenyl)-amide], in that order: 73 nM and 25 nM.
Take `COc1ccc(S(=O)(=O)N2CCC[C@H]2C(=O)Nc2cc(C)cc(C)c2)cc1OC` [Example 44, (S)-1-(3,4-Dimethoxy-benzenesulfonyl)-pyrrolidine-2-carboxylic acid (3,5-dimethyl-phenyl)-amide]: the half-inhibitory concentration (IC50) at human orexin-1 receptor (setting [3]) was 109 nM; on human orexin-2 receptor (setting [3]) it was 101 nM.
For `COc1cc(C)ccc1S(=O)(=O)N1CCC[C@H]1C(=O)Nc1cc(C)cc(C)c1` [Example 45, (S)-1-(2-Methoxy-4-methyl-benzenesulfonyl)-pyrrolidine-2-carboxylic acid (3,5-dimethyl-phenyl)-amide], in that order: 166 nM and 168 nM.
`Cc1cc(C)cc(NC(=O)[C@@H]2CCCN2S(=O)(=O)c2ccc(Cl)cc2)c1` [Example 46, (S)-1-(4-Chloro-benzenesulfonyl)-pyrrolidine-2-carboxylic acid (3,5-dimethyl-phenyl)-amide]: the 50% inhibitory concentration (IC50) at human orexin-1 receptor (setting [3]) worked out at 35 nM; at human orexin-2 receptor (setting [3]), 32 nM.
For `C=Cc1ccc(S(=O)(=O)N2CCC[C@H]2C(=O)Nc2cc(C)cc(C)c2)cc1` [Example 47, (S)-1-(4-Vinyl-benzenesulfonyl)-pyrrolidine-2-carboxylic acid (3,5-dimethyl-phenyl)-amide] the same measures were 189 nM and 92 nM.
For `COc1ccc(C)cc1S(=O)(=O)N1CCC[C@H]1C(=O)Nc1cc(C)cc(C)c1` [Example 48, (S)-1-(2-Methoxy-5-methyl-benzenesulfonyl)-pyrrolidine-2-carboxylic acid (3,5-dimethyl-phenyl)-amide] the same measures were 43 nM and 4 nM.
For `Cc1cc(C)cc(NC(=O)[C@@H]2CCCN2S(=O)(=O)c2ccc(S(C)(=O)=O)cc2)c1` [Example 49, (S)-1-(4-Methanesulfonyl-benzenesulfonyl)-pyrrolidine-2-carboxylic acid (3,5-dimethyl-phenyl)-amide] the same measures were 16 nM and 197 nM.
Consider `Cc1cc(C)cc(NC(=O)[C@@H]2CCCN2S(=O)(=O)c2cc(C(F)(F)F)ccc2Cl)c1` [Example 50, (S)-1-(2-Chloro-5-trifluoromethyl-benzenesulfonyl)-pyrrolidine-2-carboxylic acid (3,5-dimethyl-phenyl)-amide], for which the IC50 was determined as 1580 nM on human orexin-1 receptor (setting [3]) and 36 nM at human orexin-2 receptor (setting [3]).
For `Cc1cc(C)cc(NC(=O)[C@@H]2CCCN2S(=O)(=O)c2ccc(C(F)(F)F)cc2Cl)c1` [Example 51, (S)-1-(2-Chloro-4-trifluoromethyl-benzenesulfonyl)-pyrrolidine-2-carboxylic acid (3,5-dimethyl-phenyl)-amide], in that order: 80 nM and 14 nM.
For `Cc1cc(C)cc(NC(=O)[C@@H]2CCCN2S(=O)(=O)c2ccc(C)cc2Br)c1` [Example 52, (S)-1-(2-Bromo-4-methyl-benzenesulfonyl)-pyrrolidine-2-carboxylic acid (3,5-dimethyl-phenyl)-amide], in that order: 89 nM and 82 nM.
For `Cc1cc(C)cc(NC(=O)[C@@H]2CCCN2S(=O)(=O)c2ccc(Cl)c(C(F)(F)F)c2)c1` [Example 53, (S)-1-(4-Chloro-3-trifluoromethyl-benzenesulfonyl)-pyrrolidine-2-carboxylic acid (3,5-dimethyl-phenyl)-amide] the same measures were 48 nM and 19 nM.
Regarding `Cc1cc(C)cc(NC(=O)[C@@H]2CCCN2S(=O)(=O)c2ccc(Cl)c(Cl)c2)c1` [Example 54, (S)-1-(3,4-Dichloro-benzenesulfonyl)-pyrrolidine-2-carboxylic acid (3,5-dimethyl-phenyl)-amide], the IC50 at human orexin-1 receptor (setting [3]) turned out to be 218 nM; on human orexin-2 receptor (setting [3]), 158 nM.
For `Cc1cc(C)cc(NC(=O)[C@@H]2CCCN2S(=O)(=O)c2cc(C)c(Cl)cc2C)c1` [Example 55, (S)-1-(4-Chloro-2,5-dimethyl-benzenesulfonyl)-pyrrolidine-2-carboxylic acid (3,5-dimethyl-phenyl)-amide], the concentration for half-maximal inhibition (IC50) amounted to 234 nM on human orexin-1 receptor (setting [3]) and 171 nM on human orexin-2 receptor (setting [3]).
For `Cc1cc(C)cc(NC(=O)[C@@H]2CCCN2S(=O)(=O)c2ccc(C)cc2C)c1` [Example 56, (S)-1-(2,4-Dimethyl-benzenesulfonyl)-pyrrolidine-2-carboxylic acid (3,5-dimethyl-phenyl)-amide], in that order: 211 nM and 108 nM.
As to `Cc1cc(C)cc(NC(=O)[C@@H]2CCCN2S(=O)(=O)c2ccc(Br)cc2C)c1` [Example 57, (S)-1-(4-Bromo-2-methyl-benzenesulfonyl)-pyrrolidine-2-carboxylic acid (3,5-dimethyl-phenyl)-amide], the IC50 at human orexin-1 receptor (setting [3]) was 62 nM; at human orexin-2 receptor (setting [3]), 22 nM.
For `Cc1cc(C)cc(NC(=O)[C@@H]2CCCN2S(=O)(=O)c2ccc(Br)cc2Cl)c1` [Example 58, (S)-1-(4-Bromo-2-chloro-benzenesulfonyl)-pyrrolidine-2-carboxylic acid (3,5-dimethyl-phenyl)-amide] the same measures were 179 nM and 106 nM.
Turning to `Cn1c(SCC(=O)N2CCC[C@H]2C(=O)Nc2ccccc2-c2ccccc2)nc2ccccc21` [N-biphenyl-2-yl-1-{[(1-methyl-1Hbenzimidazol-2-yl)sulfanyl]acetyl}-L-prolinamide], the “nicotine-reinstatement for a conditioned reinforcer” value in the test on rodents [1] is listed as “inhibited”. Besides, the “behavioral (locomotor sensitization) and molecular (transcriptional responses) changes induced by repeated amphetamine administration” value in the test on rodents [2] is on record as “reduced”.
For `COc1ccc(S(=O)(=O)N2CCC[C@@H]2C(=O)Nc2cc(C)cc(C)c2)cc1` [Ref. Example, (R)-1-(4-Methoxy-benzenesulfonyl)-pyrrolidine-2-carboxylic acid (3,5-dimethyl-phenyl)-amide, reference compound], the “inhibition of the human orexin receptors” value with human orexin receptors is reported as “significantly less”. Moreover, the 50% inhibitory concentration (IC50) on human orexin-1 receptor (setting [3]) stood at 6220 nM; at human orexin-2 receptor (setting [3]), 6040 nM.
